One data set has as its system IGF-1. The data set is described as follows: ACROBAT Advance long-term study: IGF-1. Type of data set: in vivo, human. The note with it: once daily oral, 10-40 mg/day HMG capsules; interim results. The protocol:
ACROBAT Advance is an ongoing open-label, long-term (5 year) safety and efficacy study of paltusotine in patients rolling-over from the ACROBAT Evolve & Edge studies.
Eligible patients completing ACROBAT Edge and Evolve entered ACROBAT Advance either immediately on completion of a washout period in the parent study or after a gap during which they reverted to their routine standard of care treatment. Paltusotine therapy: initiated at 10 mg/day and titrated up to maximum dose of 40 mg/day based on IGF-1 and tolerability. Patients were administered 10 mg HMG capsules. Combination therapy was allowed for patients not reaching therapeutic targets with 40 mg/day of paltusotine monotherapy.
IGF-1 measured centrally with IDS-ISYS assay calibrated to WHO recombinant reference standard 02/254.

The nature of data set [1]: Clinical studies: bioavailability and half-life of Compound A. Type of data set: in vivo. The note with it: human, plasma, oral. The source says: Compound A is a selective nonpeptide SST2 biased agonist. […] In some embodiments, Compound A is used to treat acromegaly, neuroendocrine tumors, or both. In some embodiments, Compound A is used to treat acromegaly. In some embodiments, Compound A is used to treat neuroendocrine tumors. In some embodiments, Compound A is used to treat pituitary gigantism.

Data set [2] can be described thus: Phase 1 single-and-multiple-dose study in healthy volunteers: oral glucose tolerance test / safety. Type of data set: in vivo, human. Particulars: for glucose concentration by 2 hours post challenge / peak glucose concentration 1 hour post oral glucose challenge: one subject. How it is done: A phase 1, randomized, double-blind, placebo-controlled, single and multiple ascending dose study was performed with oral Compound A at a single study center. Inclusion criteria included age 18 to 50 years; body mass index of 18-30 kg/m^2; and if female, postmenopausal by history or surgery. Exclusion criteria included presence of significant medical history.
In the single-dose phase, participants were randomized 6:2 to Compound A (1.25, 2.5, 5, 10, 20, 40, and 60 mg) or placebo in 7 cohorts (S1 to S7). Cohorts comparing oral bioavailability of solution versus capsules and the effect of a standardized high-fat, high-calorie breakfast on oral bioavailability of the capsule formulation employed the 10 mg dose level. In the multiple-dose phase, participants were randomized 6:3 to once-daily oral Compound A-HCl capsules or placebo at doses of 5 mg for 7 days (M1, Day Last=Day 7), and 10, 20, and 30 mg daily for 10 days (M2, M3, M4, Day Last=Day 10).
Safety assessments: Safety assessments included monitoring of clinical laboratory tests, cardiovascular safety monitoring (continuous Holter monitoring, ECG, telemetry), and physical examinations conducted at scheduled times throughout the study in the research units as well as post-discharge (up to 9 days after the single-dose, or up to 11 days after the last dose for multiple-dose cohorts). Adverse events and concomitant medications were recorded. Laboratory samples for clinical chemistry, hematology, coagulation tests, and urinalysis were collected under fasted conditions.
In the multiple-dose cohorts, baseline serum TSH, ACTH, and prolactin samples were collected on Day −2, and an oral glucose tolerance test (OGTT) was conducted on Day −7 or earlier. These assessments were repeated on Day 8 (M1) or Day 11 (M2 and subsequent cohorts).
Clinically significant hypoglycemia occurred in 1 subject in Cohort M3 (Compound A-HCl−10 days at 20 mg/day) at 2 and at 3 hours post-glucose challenge, and in 1 subject in Cohort M4 (Compound A-HCl−10 days at 30 mg/day) at 3 hours post-glucose challenge at the baseline assessment (Day −7).

The values below come from US20240366587A1, “USES OF A SOMATOSTATIN MODULATOR FOR THE TREATMENT OF DISEASE” (Crinetics Pharmaceuticals, Inc., priority 2021, published 2024).

A word on the bioavailability: it is the share of a dose that reaches the circulation, judged against a reference dose that is usually intravenous. By half-life is commonly meant the time in which the quantity being followed falls by half.

Several values for one entry are separate records, joined by “and”; a condition that tells them apart may be missing. Equal entries are not always repeated.

On to `N#Cc1cccc(-c2ccc3ncc(-c4cc(F)cc(F)c4)c(N4CCC(N)CC4)c3c2)c1O` [Compound A, 3-(4-(4-amino-piperidin-1-yl)-3-(3,5-difluoro-phenyl)-quinolin-6-yl)-2-hydroxy-benzonitrile], for which the “IGF-1 level on long-term treatment” value in the data set with IGF-1 was “lowers and maintains IGF-1 at levels comparable to prior injected SRL therapy for up to 51 weeks”. Moreover, in data set [1] (read-out: estimated bioavailability), the bioavailability is about 70%. Also, the half-life in data set [1] (read-out: observed half-life) lay within 42 to 50 h. In addition, in data set [2] (healthy volunteers, multiple dosing up to 30 mg), the “change in fasting plasma glucose” value was “not associated with significant changes in fasting plasma glucose”. The “treatment emergent adverse events of hyperglycemia” value in data set [2] (healthy volunteers, repeated daily dosing 5-30 mg, OGTT after 10 days of dosing) is given as “Two TEAEs of asymptomatic hyperglycemia occurred”. In addition, in data set [2] (healthy volunteers, up to 30 mg, placebo 18%), the “increase from baseline in serum glucose AUC0-3 hr” value was “up to 36%”. In addition, in data set [2] (Cohort M2 (10 mg/day, 10 days)), the “glucose concentration by 2 hours post challenge” value was 4.3 mmol/L and 77 mg/dL; the “peak glucose concentration 1 hour post oral glucose challenge” value was 12.4 mmol/L and 223 mg/dL. In data set [2] (Cohort M3 (20 mg/day, 10 days)), the “glucose concentration by 2 hours post challenge” value was 5.8 mmol/L and 104 mg/dL; the “peak glucose concentration 1 hour post oral glucose challenge” value was 12.2 mmol/L and 220 mg/dL.
